Values belong to the molecule of their own block, whether it stands above or below them. Positions of bridges follow the written chain, without caps; N, C: chain ends. Non-standard residues stand in square brackets, D forms with d. Residues, ends and D or L forms follow the SMILES beside them. *: point of attachment. NH(CH2CH2O)2(CH2)6Cl = ClCCCCCCOCCOCCN*
What was measured:
GppNHp-bound Gαi1 = target: T1, GppNHp-bound Gαi1 (Homo sapiens, UniProt P63096); assay: Bio-layer interferometry (BLI) binding; conditions: highest concentration tested
T1 construct: hexahistidine (N, cleaved yes); made in house; host or cells: Escherichia coli BL21(DE3)
Experimental: (§1) BLI experiments were performed using an OctetRED384 instrument from ForteBio. All experiments were performed at 25° C. using BLI buffer (10 mM HEPES pH 7.4, 150 mM NaCl, 1 mM MgCl2, 0.05% Tween-20, 0.1% DMSO, 0.2 mM GppNHp or GDP). Cyclic peptides were diluted to a series of concentrations in BLI buffer plus 10 μM Biotin. Assays were conducted in Greiner 384well, black, flat bottom polypropylene plates containing the protein solutions, BLI buffer plus 10 μM Biotin for dissociation, and serial dilutions of cyclic peptides to be tested.
(§2) Biotinylated proteins were immobilized on Streptavidin biosensors by dipping sensors into plate wells containing protein solutions at a concentration of 100-150 nM. Protein loading is around 2-3 nm. Sensors loaded with proteins were moved and dipped into wells with BLI buffer plus 10 μM Biotin to block unlabeled Streptavidin. Association-dissociation cycles of compounds were started by moving and dipping sensors to cyclic peptides dilutions and BLI buffer plus 10 μM Biotin wells alternatively. Association and dissociation times were carefully determined to ensure full association and dissociation.
(§3) Raw kinetic data collected were processed with the Data Analysis software provided by the manufacturer using single reference subtraction in which buffer-only reference was subtracted (For GN13 analysis). Because GD20 analogs have a low level of background binding, we used a double reference subtraction (buffer-only reference and non-protein-loading reference) method to calculate their kinetics values. The resulting data were analyzed based on a 1:1 binding model from which kon and koff values were obtained and then Kd values were calculated.

GDP-bound Gαi1 = target: T2, GDP-bound Gαi1 (Homo sapiens, UniProt P63096); assay: Bio-layer interferometry (BLI) binding; conditions: highest concentration tested
T2 construct: hexahistidine (N, cleaved yes); made in house; host or cells: Escherichia coli BL21(DE3)
Experimental: as §1, §2, §3

Gαs [1] = target: T3, Gαs (Homo sapiens, UniProt P63092); assay: GTPγS binding assay ([35S]GTPγS); assay type: biochemical; parameters: made in house; host or cells: Escherichia coli BL21(DE3)
Experimental: Gα proteins were diluted to 10 μM with dilution buffer (20 mM HEPES 7.5, 150 mM NaCl, 1 mM MgCl2, 2 mM DTT, and 20 μM GDP) and incubated with 5× stocks of cyclic peptides at room temperature for 2 hours. GTPγS binding was initiated by mixing with the reaction buffer at room temperature (50 nM [35S]GTPγS and 100 μM GTPγS in dilution buffer) at room temperature. At various time points, 10 μL of the sample was removed and mixed with 390 μL of ice-cold wash buffer (20 mM HEPES 7.5, 150 mM NaCl, 20 mM MgCl2). The mixture was filtered through a mixed cellulose membrane (25 mm, 0.22 μm). The membrane was washed by ice-cold wash buffer (500 μL×3), put in a 6-mL plastic vial and air-dried (room temperature 1.5 h). 5 mL of CytoScint-ES Liquid Scintillation Cocktail (MP Biomedicals) was added to each vial. After incubation overnight at room temperature, the vial was used for liquid scintillation counting with a LS 6500 Multi-Purpose Scintillation Counter. A standard curve was generated using [35S]GTPγS. The radioactive activity (Counts per minute) of the samples were converted to the GTPγS concentration. The GTPγS binding curves were fitted by the software GraphPad Prism using the following equation to calculate the apparent GTPγS binding rates (kapp): […]
in which “Y” is the concentration of GTPγS that bound to Gα protein at time “X” (minutes).

GppNHp-bound Gαs = GppNHp-bound Gαs (Homo sapiens, UniProt P63092); assay: Bio-layer interferometry (BLI) binding kinetics; parameters: hexahistidine (N, cleaved yes); made in house; host or cells: Escherichia coli BL21(DE3); conditions: highest concentration tested
Experimental: as §1, §2, §3

Gαi = Gαi (Homo sapiens, UniProt P63096); assay: Nucleotide exchange step (GDP dissociation / GTPγS binding); assay type: biochemical; conditions: compared with Gαs
Experimental: (§4) Gα proteins were diluted to 400 nM in the EDTA buffer (20 mM HEPES 7.5, 150 mM NaCl, 1 mM EDTA-Na 8.0, 2 mM DTT). [^3H]GDP (1 mCi/mL, 25.2 μM) was added to a final concentration of 1.2 μM, followed by cyclic peptides addition. After incubation at 20° C. for 30 minutes, the same volume of assay buffer ([…] HEPES-Na 7.5, 150 mM NaCl, 2 mM MgCl2, and 1 mM GDP) was added to initiate [^3H]GDP dissociation. At various points, […] was removed and mixed with 390 μL of ice-cold wash buffer (20 mM HEPES 7.5, 150 mM NaCl, 20 mM MgCl2). The mixture was immediately filtered through a mixed cellulose membrane (25 mm, 0.22 μm) held by a microanalysis filter holder (EMD Millipore). The membrane was washed by ice-cold wash buffer (500 μL×3), put in a 6-mL plastic vial and air-dried (room temperature 1.5 h). 5 mL of CytoScint-ES Liquid Scintillation Cocktail was added to each vial. After incubation overnight at room temperature, the vial was used for liquid scintillation counting with a LS 6500 Multi-Purpose Scintillation Counter.
Gα proteins were diluted to 10 μM with dilution buffer (20 mM HEPES 7.5, 150 mM NaCl, 1 mM MgCl2, 2 mM DTT, and 20 μM GDP) and incubated with 5× stocks of cyclic peptides at room temperature for 2 hours. GTPγS binding was initiated by mixing with the reaction buffer at room temperature (50 nM [35S]GTPγS and 100 μM GTPγS in dilution buffer) at room temperature. […]

GDP-bound Gαs = target: T4, GDP-bound Gαs (Homo sapiens, UniProt P63092); assay: Bio-layer interferometry (BLI) binding kinetics; conditions: GDP/Gαs
T4 construct: hexahistidine (N, cleaved yes); made in house; host or cells: Escherichia coli BL21(DE3)
Experimental: as §1, §2, §3

Gαs [2] = target: T3, Gαs; assay: GDP dissociation assay ([3H]GDP); assay type: biochemical; parameters: made in house; host or cells: Escherichia coli BL21(DE3)
Experimental: as §4
The GDP dissociation curves were fitted by the software GraphPad Prism using the following equation to calculate the dissociation rates (koff): […]
in which “Y” is the radioactivity (Counts per minute) of the sample at time “X” (minutes), and Y0 is the calculated radioactivity of the sample at the time point 0.

[3] = system: HeLa cells stably expressing HaloTag; assay: Chloroalkane penetration assay (CAPA); assay type: in vitro ADME, human
From the text: We first tested the cell permeability of GD20, as peptide-based chemical probes often suffer from poor cell permeability. […] In order to quantitatively evaluate the cell permeability of GD20, we used a recently developed HaloTag-based assay known as a chloroalkane penetration assay (CAPA) (Figure S6I) (Peraro et al., 2018). HeLa cells stably expressing HaloTag localized to the mitochondrial outer membrane were pulsed with chloroalkane-tagged molecules (ct-molecule), washed, chased with chloroalkane-tagged TAMRA fluorophore (ct-TAMRA), and finally analyzed by flow cytometry. A lower ct-TAMRA fluorescent signal indicates competition from a higher cytosolic concentration of ct-molecule. The carboxyl terminus of GD20 (G15) was conjugated with a chloroalkane tag to make ct-GD20 (FIG. 23A).
The cell lines used for CAPA were HeLa cell lines, generated by Chenoweth and co-workers, that stably express HaloTag exclusively in the cytosol (Peraro et al., 2018). Cells were seeded in a 96-well plate the day before the experiment at a density of 4×10^4 cells per well. The day of the experiment the media was aspirated, and 100 μL of cyclic peptide dilutions in DMEM were added to the cells. Plate was incubated for 19.5 h at 37° C. with 5% CO2. […] The cells were then trypsinized, quenched with DMEM, resuspended in PBS, and analyzed using a benchtop flow cytometer (CytoFLEX, Beckman).

[4] = target: T5, Biotinylated Avi-tagged WT Gαs (residues 7-380 of the short isoform of human Gαs), GDP-bound (human, UniProt P63092 7-394, biotin on the Avi tag (BirA)); assay: TR-FRET competition: biotinylated GDP-bound Gαs WT against His-Gβγ(C68S)
T5 construct: Loaded with GDP; Same polypeptide as m7, other nucleotide state; also called biotinylated Gαs WT
Experimental: (§5) Biotinylated avi-Gαs (6-end, WT) and avi-Gαi (FL, WT) were diluted to 32 nM (8×) using assay buffer (1× PBS 7.4, 2 mM DTT, 0.1% BSA, 2 mM MgCl₂, 0.05% Tween plus 0.5 mM GDP), followed by mixing with a same volume of 8× streptavidin XL665 stock (32 nM in the assay buffer). 8× His-Gβ/γ (C68S) stock (16 nM) and 8× anti-6His-Tb cryptate stock (0.4 μg/mL) were added into the Gα/XL665 mixtures. Finally, 2× stocks of cyclic peptides were added with the protein mixtures. After incubation at room temperature for 2 hour at room temperature. […] FRET Signal was calculated as the ratio of [Read B]/[Read A].

[5] = target: WT Gαs (purified, steady-state GTPase, GDP dissociation and GTPγS binding assays) (UniProt P63092-2 7-380); assay: cell-based or functional assay
[6] = target: T5, Biotinylated Avi-tagged WT Gαs …; assay: TR-FRET competition: biotinylated Gαs or Gαi (GDP) against His-Gβγ(C68S)
Experimental: as §5

[7] = target: T6, Biotinylated His/Avi-tagged Gαs used in the RaPID selection, GppNHp-bound (human, UniProt P63092 7-394, biotin on the Avi tag (BirA co-expressed)); assay: RaPID comparison selection: peptide-mRNA-cDNA complexes on Gαs-immobilized streptavidin beads, qPCR and sequencing
T6 construct: Immobilized on streptavidin magnetic beads

[8] = target: Biotinylated Avi-tagged WT Gαs (residues 7-380 of the short isoform of human Gαs), GppNHp-bound (human) (UniProt P63092); assay: TR-FRET competition: biotinylated Gαs WT (GppNHp-bound) with His-tagged adenylyl cyclase (VC1/IIC2) as the blocked partner; peptide concentration varied
Biotinylated Avi-tagged WT Gαs (residues 7-380 of the short isoform of human Gαs), GppNHp-bound (human), sequence (P63092 other isoform, or with tags, fused parts or gaps limits assumed): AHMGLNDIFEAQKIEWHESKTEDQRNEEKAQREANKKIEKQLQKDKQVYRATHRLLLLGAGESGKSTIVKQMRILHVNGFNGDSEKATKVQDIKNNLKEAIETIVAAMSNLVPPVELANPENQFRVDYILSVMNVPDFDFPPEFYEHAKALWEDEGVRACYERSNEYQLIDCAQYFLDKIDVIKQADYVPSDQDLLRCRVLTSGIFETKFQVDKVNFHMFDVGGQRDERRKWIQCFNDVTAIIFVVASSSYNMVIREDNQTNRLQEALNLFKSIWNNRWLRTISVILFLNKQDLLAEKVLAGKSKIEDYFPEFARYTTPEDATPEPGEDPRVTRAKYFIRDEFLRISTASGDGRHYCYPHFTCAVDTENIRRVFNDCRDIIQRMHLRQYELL

T3 sequence (P63092 1-380 isoform P63092-2): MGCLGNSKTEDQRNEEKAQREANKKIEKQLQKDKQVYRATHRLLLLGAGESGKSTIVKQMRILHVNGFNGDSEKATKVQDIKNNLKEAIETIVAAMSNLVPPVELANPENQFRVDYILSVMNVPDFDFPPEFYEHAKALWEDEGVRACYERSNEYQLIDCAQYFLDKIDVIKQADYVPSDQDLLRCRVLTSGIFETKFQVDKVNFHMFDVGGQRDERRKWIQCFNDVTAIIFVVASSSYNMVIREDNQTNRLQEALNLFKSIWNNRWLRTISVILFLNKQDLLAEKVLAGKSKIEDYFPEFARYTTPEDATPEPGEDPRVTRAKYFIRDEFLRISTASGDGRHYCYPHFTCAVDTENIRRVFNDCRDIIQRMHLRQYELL
T6 sequence (P63092 other isoform, or with tags, fused parts or gaps limits assumed): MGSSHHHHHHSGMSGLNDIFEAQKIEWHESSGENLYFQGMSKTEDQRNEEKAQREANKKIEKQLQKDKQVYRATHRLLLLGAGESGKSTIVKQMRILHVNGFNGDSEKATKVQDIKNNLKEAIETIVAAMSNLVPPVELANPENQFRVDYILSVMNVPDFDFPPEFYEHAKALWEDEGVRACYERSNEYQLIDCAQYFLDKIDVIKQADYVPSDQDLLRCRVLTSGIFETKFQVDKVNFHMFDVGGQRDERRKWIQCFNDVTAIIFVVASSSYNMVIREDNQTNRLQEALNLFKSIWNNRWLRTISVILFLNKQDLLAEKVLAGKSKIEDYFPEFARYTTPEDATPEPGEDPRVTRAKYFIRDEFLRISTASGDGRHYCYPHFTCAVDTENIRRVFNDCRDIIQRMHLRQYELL
T1 sequence (P63096 with tags, fused parts or gaps): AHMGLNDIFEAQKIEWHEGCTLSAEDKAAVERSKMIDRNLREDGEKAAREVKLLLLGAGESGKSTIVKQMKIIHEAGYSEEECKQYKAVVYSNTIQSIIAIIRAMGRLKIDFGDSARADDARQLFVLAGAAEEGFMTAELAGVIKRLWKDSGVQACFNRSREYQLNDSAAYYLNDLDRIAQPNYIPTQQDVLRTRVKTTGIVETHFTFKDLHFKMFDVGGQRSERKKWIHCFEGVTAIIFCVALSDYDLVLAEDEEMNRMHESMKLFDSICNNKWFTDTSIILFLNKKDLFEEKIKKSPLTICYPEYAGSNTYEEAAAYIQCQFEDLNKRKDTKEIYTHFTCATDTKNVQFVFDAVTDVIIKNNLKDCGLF
T2 sequence (P63096 with tags, fused parts or gaps): as above
Gαi, sequence (P63096 whole entry): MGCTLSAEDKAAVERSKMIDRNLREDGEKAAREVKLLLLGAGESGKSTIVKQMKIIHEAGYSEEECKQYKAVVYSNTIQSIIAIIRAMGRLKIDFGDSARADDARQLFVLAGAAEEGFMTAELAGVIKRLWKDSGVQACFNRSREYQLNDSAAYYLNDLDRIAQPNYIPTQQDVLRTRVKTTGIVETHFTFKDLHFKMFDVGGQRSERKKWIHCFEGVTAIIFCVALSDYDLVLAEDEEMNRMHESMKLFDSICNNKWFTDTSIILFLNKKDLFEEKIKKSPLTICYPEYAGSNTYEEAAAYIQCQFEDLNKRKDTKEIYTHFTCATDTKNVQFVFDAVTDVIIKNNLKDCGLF
WT Gαs (purified, steady-state GTPase, GDP dissociation and GTPγS binding assays), sequence (P63092 other isoform, or with tags, fused parts or gaps limits assumed): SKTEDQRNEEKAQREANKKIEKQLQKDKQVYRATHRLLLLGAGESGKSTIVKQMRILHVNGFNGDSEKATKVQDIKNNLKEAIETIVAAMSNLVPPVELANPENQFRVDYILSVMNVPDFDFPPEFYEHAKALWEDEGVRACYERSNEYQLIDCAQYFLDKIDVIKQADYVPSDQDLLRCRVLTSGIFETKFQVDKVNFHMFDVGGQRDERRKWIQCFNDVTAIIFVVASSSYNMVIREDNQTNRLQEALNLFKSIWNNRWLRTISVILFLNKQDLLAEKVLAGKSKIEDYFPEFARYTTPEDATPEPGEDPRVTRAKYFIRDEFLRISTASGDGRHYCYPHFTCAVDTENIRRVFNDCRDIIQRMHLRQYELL

- binding to GppNHp-bound Gαi1 (GppNHp-bound Gαi1): no detectable binding
- binding to GDP-bound Gαi1 (GDP-bound Gαi1): no detectable binding
- effect on the apparent rate of GTPγS binding (kapp) to Gαs (Gαs [1]): drastically reducing
- binding to GppNHp-bound Gαs (GppNHp-bound Gαs): no detectable binding
- sensitivity of the nucleotide exchange step of Gαi (Gαi): much less sensitive
- Kd (GDP-bound Gαs): 31.4 ± 0.7 nM
- koff (GDP-bound Gαs): 0.00343 s⁻¹
- kon (GDP-bound Gαs): 109000 M⁻¹ s⁻¹
- effect on Gαs GDP dissociation rates (koff) (Gαs [2]): drastically reducing
Molecule: CC[C@H](C)[C@@H]1NC(=O)[C@H](CC(C)C)NC(=O)[C@@H](Cc2ccc(O)cc2)NC(=O)CSC[C@@H](C(=O)NCC(N)=O)NC(=O)[C@@H]2CCCN2C(=O)[C@H](CC(C)C)NC(=O)[C@H](CC(N)=O)NC(=O)[C@H](Cc2ccccc2)NC(=O)[C@H](C)NC(=O)[C@H](Cc2c[nH]c3ccccc23)NC(=O)[C@H](CCC(N)=O)NC(=O)[C@H](CCCNC(=N)N)NC(=O)[C@H](Cc2ccccc2)NC(=O)[C@H]([C@@H](C)O)NC1=O [GD20] ({CH2CO}-[dY]LITFRQWAFNLPCG-NH2; thioether N-14)

- cell permeability (CAPA) [3]: cell permeable
Molecule: CC[C@H](C)[C@@H]1NC(=O)[C@H](CC(C)C)NC(=O)[C@@H](Cc2ccc(O)cc2)NC(=O)CSC[C@@H](C(=O)NCC(=O)NCCOCCOCCCCCCCl)NC(=O)[C@@H]2CCCN2C(=O)[C@H](CC(C)C)NC(=O)[C@H](CC(N)=O)NC(=O)[C@H](Cc2ccccc2)NC(=O)[C@H](C)NC(=O)[C@H](Cc2c[nH]c3ccccc23)NC(=O)[C@H](CCC(N)=O)NC(=O)[C@H](CCCNC(=N)N)NC(=O)[C@H](Cc2ccccc2)NC(=O)[C@H]([C@@H](C)O)NC1=O [ct-GD20] ({CH2CO}-[dY]LITFRQWAFNLPCG-{NH(CH2CH2O)2(CH2)6Cl}; thioether N-14)

- IC50 [4]: 18.4 nM
- IC50, inhibition of Gαs steady-state GTPase activity [5]: 1150 nM
- fold selectivity for Gαs over Gαi [6]: ≥ 100 fold
B1: GD20 (peptide)
peptide: {CH2CO}-[dY]LITFRQWAFNLPCG-NH2
modifications: thioether N-14
SMILES: CC[C@H](C)[C@@H]1NC(=O)[C@H](CC(C)C)NC(=O)[C@@H](Cc2ccc(O)cc2)NC(=O)CSC[C@@H](C(=O)NCC(N)=O)NC(=O)[C@@H]2CCCN2C(=O)[C@H](CC(C)C)NC(=O)[C@H](CC(N)=O)NC(=O)[C@H](Cc2ccccc2)NC(=O)[C@H](C)NC(=O)[C@H](Cc2c[nH]c3ccccc23)NC(=O)[C@H](CCC(N)=O)NC(=O)[C@H](CCCNC(=N)N)NC(=O)[C@H](Cc2ccccc2)NC(=O)[C@H]([C@@H](C)O)NC1=O
notes: also called cyclic peptide GD20

- fold selectivity for GppNHp-bound over GDP-bound Gαs [7]: > 100 fold
- IC50 (read off the curve) [8]: 200 nM
B2: GN10 (peptide)
peptide: Ac-[dY]HEQFDNFCDLWCG-NH2
modifications: thioether (positions not given here); also: thioether partner Cys9 or Cys13 not settled
